Laboratory results: US20040191240A1, “Composition and method for nerve regeneration” (priority 2003, published 2004)
“Also recorded” adds a separate entry of the source. Where no end group is shown, it is not given here.

Columns and labels:
[1] = test system: cerebellar granule neurons from P7 rats; experiment: Neurite outgrowth (growth) assay, cerebellar neurons; type: cell-based, rat; settings: data not shown
[2] = test system: cerebellar granule neurons; experiment: Ca2+ fluorescence imaging (Oregon-green 488BAPTA-1 and Fura Red); type: cell-based; settings: p7 rat cerebellar granule neurons; inhibitor or antibody with MAG
p75 = target: T1, p75 (Mus musculus, UniProt Q9Z0W1); experiment: Co-precipitation of p75 with GST-Pep5; type: binding; settings: lysates from post-natal cerebellum
T1 construct: was incubated with lysates prepared from post-natal cerebellum that abundantly express p75; from tissue; host or cells: post-natal cerebellum lysate
T1 sequence (Q9Z0W1 32-427): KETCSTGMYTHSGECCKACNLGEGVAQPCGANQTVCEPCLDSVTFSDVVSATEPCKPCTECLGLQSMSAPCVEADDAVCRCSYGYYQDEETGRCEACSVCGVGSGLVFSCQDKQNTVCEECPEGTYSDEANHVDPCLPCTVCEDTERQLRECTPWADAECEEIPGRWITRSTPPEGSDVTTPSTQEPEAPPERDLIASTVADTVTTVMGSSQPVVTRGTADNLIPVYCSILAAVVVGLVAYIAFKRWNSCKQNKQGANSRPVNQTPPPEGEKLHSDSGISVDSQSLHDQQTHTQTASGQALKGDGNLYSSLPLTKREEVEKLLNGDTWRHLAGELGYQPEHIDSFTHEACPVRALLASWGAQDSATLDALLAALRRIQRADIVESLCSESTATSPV

mice = experiment: Spinal cord injury, similar experiments for mice (Example 2-7); type: in vivo, mouse
Description: Similar experiments were carried out for mice as described above.

cerebellar neurons = experiment: Neurite outgrowth assay, post-natal cerebellar neurons; type: cell-based, mouse
RhoA = experiment: Affinity-precipitation of GTP-RhoA in cerebellar neurons; type: cell-based, mouse; settings: TAT-Pep5 1 μM; Nogo peptide 4 μM, MAG-Fc 25 μg/ml; 30 min
Description: 293 cells were transfected with pcDNA3 vectors containing wild type RhoA whose NH2-terminus is tagged with HA (Yamashita, T. et al., Neuron. 24:585-593, 1999) and/or full-length human p75 by lipofection using Lipofectamine 2000 (Gibco BRL). Cerebellar neurons from P9 mice were isolated as described previously (Cai et al, Neuron, 22:89-101, 1999). Cells were lysed in 50 mM Tris (pH 7.5), 1% Triton X-100, 0.5% sodium deoxycholate, 0.1% SDS, 500 mM NaCl, 10 mM MgCl2, with leupeptin and aprotinin, each at 10 μg/ml. Cell lysates were clarified by centrifugation at 13,000×g at 4° C. for 10 min, and the supernatants were incubated with the 20 μg of GST-Rho binding domain of Rhotekin beads (Upstate Biotech.) at 4° C. for 45 min. The beads were washed 4 times with washing buffer (50 mM Tris (pH 7.5) containing 1% Triton X-100, 150 mM NaCl, 10 mM MgCl2, 10 μg/ml each of leupeptin and aprotinin). Bound Rho proteins were detected by Western blotting using a monoclonal antibody against RhoA (Santa Cruz Biotechnology).
Amino-terminally FLAG-tagged human p75 or the deletion mutants of p75 ICD were cloned into pcDNA3.1 expression plasmid, and were transfected with 293T cells. […] Bound Rho proteins were detected by Western blotting using a monoclonal antibody against RhoA (Santa Cruz Biotechnology).

DRG neurons = experiment: Neurite outgrowth assay, adult DRG neurons; type: cell-based, mouse; settings: peptide 100 nM
male Wistar rats [3] = experiment: Spinal cord injury (dorsal half dissected, ninth thoracic vertebra), agent pumped to the injured site; type: in vivo, rat; settings: continuous osmotic pump to the injured site; versus control peptide
Description: 200 g male Wistar rats were used. After the ninth thoracic vertebrae laminectomy was performed, the dorsal half of the spinal cord was dissected. A continuous osmotic pump was used to continuously administer either TAT(PTD domain)-fused Pep5 (TAT-[…]) (SEQ ID NO. 2) or TAT(PTD domain)-fused control peptide (TAT-[…]) (SEQ ID NO. 15) to the injured site for 6 weeks ([…]). In this case, the tip of a tube connected to the pump was left in the medullary space. After spinal cord injury, the functional recovery was assessed using the BBB score. The animals were observed on day 7, 14, 21, 28, 35, and 42 after injury. These experiments were carried out using techniques described in Fournier A. E., Takizawa, B. T., Strittmatter, S. M., J. Neurosci. 2003, 23, 1416-1423.
200 g male Wistar rats were used. After the ninth thoracic vertebrae laminectomy was performed, the dorsal half of the spinal cord was dissected. A continuous osmotic pump was used to continuously administer either TAT-fused Pep5 or TAT (PTD domain)-fused control peptide to the injured site.

[4] = test system: Rho kinase fragment (aa 1-543); experiment: Rho-kinase kinase assay in vitro (S6 kinase substrate peptide); type: biochemical
male Wistar rats [5] = experiment: Spinal cord injury, p21 and TAT-bound p21, BBB score; type: in vivo, rat; settings: osmotic pump to the injured site for 2 weeks; observed from day 2 for 6 weeks
Description: 200 g male Wistar rats were used. After a ninth thoracic vertebrae laminectomy was performed, the dorsal half of the spinal cord was dissected. […] In this case, the tip of a tube connected to the pump was left in the medullary space.
After spinal cord injury, the functional recovery was assessed using the BBB score (Basso-Beattie-Bresnahan (BBB) Locomotor Rating; Basso, D. M., Beattie, M. S., Bresnahan, J. C., J. Neurotrauma 12 (1):1-21 (1995) ). Observation was carried out from day 2 after injury for 6 weeks.

[6] = target: Rho-kinase (GST-CAT; aa 6-553) (Bos taurus, UniProt Q28021); experiment: In vitro binding assay of p21 and Rho-kinase; settings: p21 1 nM
Sequence of Rho-kinase (GST-CAT; aa 6-553) (Q28021 6-553): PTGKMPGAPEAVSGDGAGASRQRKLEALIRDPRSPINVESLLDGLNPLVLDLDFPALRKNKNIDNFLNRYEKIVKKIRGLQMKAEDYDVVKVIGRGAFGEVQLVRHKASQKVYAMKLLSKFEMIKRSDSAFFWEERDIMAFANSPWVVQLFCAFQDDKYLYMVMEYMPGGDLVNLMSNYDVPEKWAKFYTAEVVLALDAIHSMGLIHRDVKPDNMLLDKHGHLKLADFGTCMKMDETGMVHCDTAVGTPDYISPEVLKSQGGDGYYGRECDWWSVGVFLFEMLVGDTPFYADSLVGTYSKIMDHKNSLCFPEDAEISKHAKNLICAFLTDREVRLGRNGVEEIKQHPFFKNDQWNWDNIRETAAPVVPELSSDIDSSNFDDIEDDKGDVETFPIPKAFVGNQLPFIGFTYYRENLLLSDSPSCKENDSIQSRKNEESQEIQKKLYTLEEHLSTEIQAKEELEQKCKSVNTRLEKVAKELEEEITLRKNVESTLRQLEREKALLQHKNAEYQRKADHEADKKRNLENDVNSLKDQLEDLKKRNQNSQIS

Cn1c2ccccc2c2c3c(c4c5ccccc5n(CCC#N)c4c21)CNC3=O [G06976]
neurite outgrowth by MAG-Fc or Nogo peptide when another PKC inhibitor was used [1]: Same results

COc1ccc2c(c1)CC[C@@H]1[C@@H]2CC[C@]2(C)[C@@H](NCCCCCCN3C(=O)C=CC3=O)CC[C@@H]12 [U73122]
effect on Ca2+ elevation induced by MAG [2]: blocked

GST-Pep5: Glutathione S-transferase-fusion protein containing Pep5 (CFFRGGFFNHNPRYC; cysteine pairing not given here; also: GST fusion protein)
co-precipitation of p75 with GST-Pep5 (p75): presence of a protein corresponding to p75

TAT-CFFRGGFFNHNPRYC ({TAT}-CFFRGGFFNHNPRYC; cysteine pairing not given here) [TAT-Pep5, Pep5 fused with the amino-terminal 11 amino acid protein transduction domain of HIV TAT]
nerve regeneration after spinal cord injury (mice): nerve regeneration was similarly observed
inhibitory effect of MAG (25 μg/ml) and the Nogo peptide (4 μM) on post-natal cerebellar neurons (cerebellar neurons): efficiently silenced the inhibitory effect
activation of RhoA induced by MAG-Fc or the Nogo peptide (RhoA): inhibited the activation of RhoA; also recorded: completely abolishes these effects
responsiveness of DRG neurons to MAG (25 μg/ml) and the Nogo peptide (4 μM) (DRG neurons): abolished their responsiveness
nerve regeneration after spinal cord injury (male Wistar rats [3]): nerve regeneration was significantly observed

p21: recombinant full-length p21 (1-164 in SEQ ID NO. 23), cyclin-dependent protein kinase inhibitor
Rho-kinase activity toward S6 kinase substrate peptide [4]: inhibited the Rho-kinase activity toward S6 kinase substrate peptide in a dose-dependent manner
functional recovery after spinal cord injury (BBB score) (male Wistar rats [5]): not sufficiently observed
in vitro interaction with the catalytic region of Rho-kinase [6]: bound to each other in vitro
